From patent US11439707B2, “Hypocrellin derivative substituted both in a peri-position and in 2-position by amino, preparation method, and application thereof” (priority 2017, dated 2022)

Experiments:
[1] = absorption spectrum (maximum absorption wavelength, molar extinction coefficient); type: physicochemical
[2] = singlet oxygen efficiency test, reference rose bengal; type: physicochemical
Hela cells = assay: photo-cytotoxicity experiment (MTT, 635 nm laser); type: cell-based
Protocol: Photo-cytotoxicity experiment on cell: cultured Hela cells were digested and pipetted with 0.25% trypsin and to prepare a single-cell suspension, the number of cells was adjusted to about 2×10^4 per milliliter, and 200 uL of the suspension was seeded in a well of a 96-well culture plate, which is placed in a 37° C. incubator containing 5% CO2 for cultivation. After the cells adhere to the wall, a supernatant culture solution was discarded, and photosensitizers of different concentrations, that is, the hematoporphyrin derivative HpD, the hypocrellin B HB, or HB-1c-PEG6 synthesized in example 3, were added in a strictly lucifugous condition in accordance with experimental designs, and the culture plate was placed in the 37° C. incubator containing 5% CO2 for further cultivation and incubation for 1 hour. Then, a semiconductor laser with a wavelength of 635 nm was used for irradiation, a power density was adjusted to 20 mW/cm^2, light beams were evenly and vertically applied onto the 96-well culture plate, and an irradiation time was 1000 S. In addition, each 96-well culture plate is provided with a blank group, and 6 holes were provided for in each condition. After irradiation, the culture plate was placed in the 37° C. incubator containing 5% CO2 for further cultivation and incubation for 24 hours, and then a cellular survival rate was measured. The cellular survival rate was measured by means of the MTT method. 20 uL of MTT was added to each well, wherein the MTT is MTT prepared with PBS and having a concentration of 5 mg/ml. The culture plate was placed in the 37° C. incubator containing 5% CO2 for further cultivation for 4 hours, after which the cultivation was terminated. A supernatant in the well was extracted and discarded carefully. Then, 150 uL of dimethyl sulfoxide (DMSO) was added to each well, and the culture plate was shaken by using a micro shaker for 10 minutes to fully dissolve a purple crystal substance. A wavelength of 570 nm was selected to measure an optical density value (i.e., OD value) of each well on a microplate reader, and the cellular survival rate was calculated in accordance with the following formula: cellular survival rate=OD value of an experimental group/OD value of a blank group×100%.

[3] = water solubility in normal saline; type: physicochemical; conditions: per milliliter of normal saline
Protocol: Most of photosensitizer molecules disclosed in this patent contain a large number of hydrophilic groups, such as a polyethylene glycol chain, a quaternary ammonium salt, a carboxyl group, and a sulfonic acid group, etc., making the photosensitizer molecules have very high water solubility in a physiological condition; and experiments indicate that each milliliter of normal saline or glucose injection can dissolve more than 5 mg of such the photosensitizer molecules, presenting excellent water solubility. Therefore, the photosensitive drug can be well transported in blood vessels during intravenous injection, without causing a vascular blockage. HB-1c-C2-N+ prepared in example 4 contains two quaternary ammonium salts, and each milliliter of normal saline can dissolve more than 20 mg of photosensitizer molecules; HC-1c-PEG6 prepared in example 6 contains two 6-PEG chains, and each milliliter of normal saline can dissolve more than 20 mg of photosensitizer molecules; HB-8c prepared in example 19 contains two carboxyl groups, and each milliliter of normal saline can dissolve more than 10 mg of photosensitizer molecules; HB-13c prepared in example 35 contains two carboxyl groups, and each milliliter of normal saline can dissolve more than 10 mg of photosensitizer molecules; and HB-13c-PEG8 prepared in example 37 contains two 8-PEG chains, and each milliliter of normal saline can dissolve more than 20 mg of photosensitizer molecules. These photosensitizer molecules all present excellent water solubility.

[4] = 200 nM, 635 nm light, FIG. 14(b)
[5] = 240 nM, 635 nm red light, FIG. 16(b)

Row | SMILES | maximum absorption wavelength [1] [nm] | molar extinction coefficient [1] | singlet oxygen yield [2] [%] | also measured
1 | COCCOCCOCCOCCOCCOCCOCCOCCOCCNC(=O)C1CCC(CNc2c3c4c5c(c(OC)c(=O)c6c(O)cc(OC)c(c7c(OC)cc(NCC8CCC(C(=O)NCCOCCOCCOCCOCCOCCOCCOCCOCCOC)CC8)c(c2=O)c74)c65)CC(C)=C3)CC1 (stereo not drawn) [HC-13c-NH-PEG8] | 630 | 33,500 M^−1cm^−1 | 38 | Hela cells killed (Hela cells; 200 nM, red light, FIG. 18(b)): more than 85%
2 | COc1c2c3c4c(c(NCCCC(=O)O)c(=O)c5c(NCCCC(=O)O)cc(OC)c(c6c(OC)cc(O)c(c1=O)c63)c54)C=C(C)C2 [HC-8c] | 618 | 28,500 M^−1cm^−1 | 27 | Hela cells killed (Hela cells; [4]): more than 85%
3 | COc1c2c3c4c(c(NCC5CCC(C(=O)O)CC5)c(=O)c5c(NCC6CCC(C(=O)O)CC6)cc(OC)c(c6c(OC)cc(O)c(c1=O)c63)c54)C=C(C)C2C(C)=O (stereo not drawn) [HB-13c] | 621 | 29,500 M^−1cm^−1 | 30 | amount dissolved by each milliliter of normal saline [3]: more than 10 mg; Hela cells killed (Hela cells; [5]): more than 85%
4 | COc1c2c3c4c(c(NCCCC(=O)O)c(=O)c5c(NCCCC(=O)O)cc(OC)c(c6c(OC)cc(O)c(c1=O)c63)c54)C=C(C)C2C(C)=O (stereo not drawn) [HB-8c] | 620 | 29,500 M^−1cm^−1 | 30 | amount dissolved by each milliliter of normal saline [3]: more than 10 mg
5 | COc1c(O)c2c(=O)cc(OC)c3c4c(OC)cc(=O)c5c(O)c(OC)c6c(c(c1CC(C)=C6C(C)=O)c23)c54 [HB, hypocrellin B] | 450 | – | – | Hela cells killed (Hela cells; 160 nM, 635 nm laser, FIG. 12(b)): about 30%; Hela cells killed (Hela cells; 160 nM, 635 nm laser, FIG. 12(b), listed as hypocrellin B): about 20%; Hela cells killed (Hela cells; 160 nM, red light, FIG. 17(b)): 30%; Hela cells killed (Hela cells; 200 nM, red light, FIG. 18(b)): 60%; Hela cells killed (Hela cells; [5]): 30%
6 | COc1c2c3c4c(c(OC)c(=O)c5c(O)cc(OC)c(c6c(OC)cc(O)c(c1=O)c63)c54)CC(C)=C2 [HC, deacetyl hypocrellin] | – | – | – | Hela cells killed (Hela cells; 140 nM, 635 nm light, FIG. 13(b)): 40%; Hela cells killed (Hela cells; [4]): 50%; Hela cells killed (Hela cells; 240 nM, 635 nm light, FIG. 15(b)): 50%
7 | COc1c(O)c2c(=O)cc(OC)c3c4c(OC)cc(=O)c5c(NCCCC(=O)O)c(NCCCC(=O)O)c6c(c(c1C(C(C)=O)C(C)=C6)c23)c54 (stereo not drawn) [HB-8a] | 622 | 27,500 M^−1cm^−1 | 25 | amount dissolved by each milliliter of normal saline [3]: more than 5 mg
8 | COc1c2c3c4c(c(NCCCCS(=O)(=O)O)c(=O)c5c(O)cc(OC)c(c6c(OC)cc(NCCCCS(=O)(=O)O)c(c1=O)c63)c54)C=C(C)C2C(C)=O (stereo not drawn) [HB-11d-C4-SO3H] | 626 | 30,500 M^−1cm^−1 | 32 | –
9 | COc1c(NC2CCCCC2C(=O)O)c2c(=O)cc(OC)c3c4c(OC)cc(=O)c5c(O)c(NC6CCCCC6C(=O)O)c6c(c(c1C(C(C)=O)C(C)=C6)c23)c54 (stereo not drawn) [HB-16b] | 625 | 26,000 M^−1cm^−1 | 26 | –
10 | COCCOCCOCCOCCOCCOCCOCCC(=O)OCCOCCNc1c2c3c4c(c(OC)c(=O)c5c(NCCOCCOC(=O)CCOCCOCCOCCOCCOCCOCCOC)cc(OC)c(c6c(OC)cc(O)c(c1=O)c63)c54)CC(C)=C2 [HC-1d-PEG6] | 622 | 34,500 M^−1cm^−1 | 34 | –
11 | COCCOCCOCCOCCOCCOCCOCCOCCOCCOCCOCCOCCOCCC(=O)OC1CCC(Nc2c3c4c5c(c(OC)c(=O)c6c(O)cc(OC)c(c7c(OC)cc(NC8CCC(OC(=O)CCOCCOCCOCCOCCOCCOCCOCCOCCOCCOCCOCCOCCOC)CC8)c(c2=O)c74)c65)C(C(C)=O)C(C)=C3)CC1 (stereo not drawn) [HB-17c-PEG12] | 632 | 33,500 M^−1cm^−1 | 38 | –
12 | COCCOC(=O)CCCCCNc1c(NCCCCCC(=O)OCCOC)c2c(=O)cc(OC)c3c4c(OC)cc(=O)c5c(O)c(OC)c6c(c(c1C=C(C)C6)c23)c54 [HC-9a-PEG1] | 621 | 30,000 M^−1cm^−1 | 32 | –
13 | COc1c2c3c4c(c(NCCCC(=O)NCCCCS(=O)(=O)O)c(=O)c5c(O)cc(OC)c(c6c(OC)cc(NCCCC(=O)NCCCCS(=O)(=O)O)c(c1=O)c63)c54)C=C(C)C2 [HC-8d-NH—C4-SO3H] | 626 | 30,500 M^−1cm^−1 | 32 | –
14 | COCCOCCOCCOCCOCCOCCOCCOCCOC(=O)C1CCC(CNc2c3c4c5c(c(OC)c(=O)c6c(O)cc(OC)c(c7c(OC)cc(NCC8CCC(C(=O)OCCOCCOCCOCCOCCOCCOCCOCCOC)CC8)c(c2=O)c74)c65)CC(C)=C3)CC1 (stereo not drawn) [HC-13c-PEG8] | 628 | 32,500 M^−1cm^−1 | 38 | –
15 | COc1c(O)c2c(=O)cc(OC)c3c4c(OC)cc(=O)c5c(NC(CC(N)=O)C(=O)O)c(NC(CC(N)=O)C(=O)O)c6c(c(c1C(C(C)=O)C(C)=C6)c23)c54 (stereo not drawn) [HB-26a] | 614 | 20,500 M^−1cm^−1 | 20 | –
16 | COc1c(O)c2c(=O)cc(OC)c3c4c(OC)cc(=O)c5c(NC6(CO)CC6)c(NC6(CO)CC6)c6c(c(c1C(C(C)=O)C(C)=C6)c23)c54 (stereo not drawn) [HB-35a] | 621 | 30,500 M^−1cm^−1 | 32 | –
17 | COc1c2c3c4c(c(NCCCC(=O)O)c(=O)c5c(O)cc(OC)c(c6c(OC)cc(NCCCC(=O)O)c(c1=O)c63)c54)C=C(C)C2C(C)=O (stereo not drawn) [HB-8d] | 624 | 29,000 M^−1cm^−1 | 26 | –
18 | COc1c2c3c4c(c(NCc5ccccn5)c(=O)c5c(NCc6ccccn6)cc(OC)c(c6c(OC)cc(O)c(c1=O)c63)c54)C=C(C)C2C(C)=O (stereo not drawn) [HB-38c] | 628 | 20,000 M^−1cm^−1 | 18 | –
19 | COc1c2c3c4c(c(NCCS(=O)(=O)OC)c(=O)c5c(O)cc(OC)c(c6c(OC)cc(NCCS(=O)(=O)OC)c(c1=O)c63)c54)C=C(C)C2C(C)=O (stereo not drawn) [HB-12d] | 624 | 21,500 M^−1cm^−1 | 21 | –
20 | COc1c(NCC(=O)O)c2c(=O)cc(OC)c3c4c(OC)cc(=O)c5c(O)c(NCC(=O)O)c6c(c(c1CC(C)=C6)c23)c54 [HC-7b] | 622 | 28,500 M^−1cm^−1 | 25 | –
21 | COCCOC(=O)CCCNc1c(NCCCC(=O)OCCOC)c2c(=O)cc(OC)c3c4c(OC)cc(=O)c5c(O)c(OC)c6c(c(c1C=C(C)C6)c23)c54 [HC-8a-PEG1] | 621 | 30,000 M^−1cm^−1 | 28 | –
22 | COCCOCCC(=O)OCCNc1c(NCCOC(=O)CCOCCOC)c2c(=O)cc(OC)c3c4c(OC)cc(=O)c5c(O)c(OC)c6c(c(c1C=C(C)C6)c23)c54 [HC-2a-PEG1] | 622 | 30,000 M^−1cm^−1 | 30 | –
